For this experiment, the target named is T1, LRRK2 (Homo sapiens, UniProt Q5S007).
T1 construct: purchased Thermo Fisher Scientific (Life Technologies) SelectScreen
Put plainly: SelectScreen Adapta. The format is biochemical. How it is done:
The in vitro kinase selectivity of NU5455 was determined using the SelectScreen Broad Assay Panel (Thermo Fisher Scientific) involving activity and binding assays (Supplemental Table 1). […] Class IA PI3Ks were measured using the p85α subunit.
Kinase [ATP] % Assay Kinase [ATP] % Assay Kinase [ATP] % Assay Kinase [ATP] % Assay
DNA-PK Km app 98.3 Z LATS2 n/a 4.7 L KIT D820E n/a 1.3 L GSK3B (GSK3 beta) Km app -2.5 Z
PIK3C3 (hVPS34) Km app 85.9 A PRKCZ (PKC zeta) Km app 4.7 Z GRK1 n/a 1.3 L BMPR2 n/a -2.5 L
PIK3C2B (PI3K-C2 beta) 10 28.9 A FGFR1 Km app 4.7 Z BRSK2 n/a 1.2 L CDC42 BPB (MRCKB) Km app -2.5 Z
SNF1LK2 Km app 26.6 Z MINK1 Km app 4.6 Z NUAK1 (ARK5) Km app 1.2 A AMPK (A2/B2/G2) n/a -2.6 L
HCK Km app 18.0 Z CSF1R (FMS) Km app 4.3 Z CDK9/cyclin K n/a 1.0 L PRKG1 Km app -2.7 Z
NEK2 Km app 17.8 Z CSNK1G3 (CK1 gamma 3) Km app 4.2 Z NUAK2 n/a 1.0 L KIT T670E n/a -2.8 L
ALK Km app 17.3 Z STK32C (YANK3) n/a 4.2 L CDK2/cyclin O n/a 0.9 L ERBB4 (HER4) Km app -2.8 Z
FGFR3 K650M n/a 16.5 L STK22D (TSSK1) Km app 4.2 Z CAMKK2 (CaMKK beta) n/a 0.9 L PLK4 n/a -2.8 L
SIK3 n/a 16.1 L TAOK3 (JIK) n/a 4.2 L FGFR3 Km app 0.9 Z GRK7 Km app -3.0 Z
LYN A Km app 15.2 Z RPS6KA4 (MSK2) Km app 4.2 Z ULK2 n/a 0.9 L MAPKAPK2 Km app -3.1 Z
BMPR1B (ALK6) n/a 14.5 L PTK2B (FAK2) Km app 4.2 Z KIT D816V n/a 0.9 L FGFR4 Km app -3.1 Z
INSRR (IRR) Km app 14.1 Z CLK2 Km app 4.1 Z CAMK1 (CaMK1) 10 0.8 A CASK n/a -3.1 L
PLK2 Km app 14.1 Z STK24 (MST3) Km app 4.1 Z PTK6 (Brk) Km app 0.7 Z GRK5 Km app -3.2 Z
PRKACA (PKA) Km app 14.0 Z CAMK1D (CaMKI delta) Km app 4.1 Z CAMK2B (CaMKII beta) Km app 0.7 Z EGFR (ErbB1) T790M Km app -3.3 Z
EIF2AK2 (PKR) n/a 13.3 L INSR Km app 4.1 Z ACVR1 (ALK2) n/a 0.7 L PAK4 Km app -3.3 Z
PRKX Km app 12.5 Z IRAK1 Km app 4.0 A ABL1 H396P n/a 0.6 L DAPK3 (ZIPK) Km app -3.4 Z
FGR Km app 12.1 Z SRC N1 Km app 3.9 Z MERTK (cMER) A708S n/a 0.6 L RET M918T n/a -3.5 L
CLK1 Km app 11.7 Z SRPK2 Km app 3.9 Z MAPKAPK5 (PRAK) Km app 0.6 Z PRKCQ (PKC theta) Km app -3.7 Z
MARK3 Km app 11.4 Z RPS6KA6 (RSK4) Km app 3.8 Z AKT1 (PKB alpha) Km app 0.5 Z CAMKK1 (CAMKKA) n/a -3.8 L
PDGFRB (PDGFR beta) Km app 11.0 Z GRK6 Km app 3.7 Z NTRK3 (TRKC) Km app 0.4 Z FLT3 D835Y Km app -3.9 Z
PRKCN (PKD3) Km app 10.7 Z PKN1 (PRK1) Km app 3.6 Z ZAP70 Km app 0.3 Z ROCK2 Km app -4.1 Z
STK16 (PKL12) n/a 10.5 L MAP3K8 (COT) 100 3.5 Z CSNK1A1 (CK1 alpha 1) Km app 0.3 Z CHUK (IKK alpha) Km app -4.2 A
FES (FPS) Km app 10.4 Z FLT4 (VEGFR3) Km app 3.5 Z MYLK (MLCK) n/a 0.2 L AXL Km app -4.2 Z
ABL1 Km app 10.4 Z GRK4 Km app 3.5 Z MKNK2 (MNK2) n/a 0.2 L PIM2 Km app -4.3 Z
MUSK Km app 10.3 Z FRK (PTK5) Km app 3.4 Z AMPK (A1/B1/G3) n/a 0.2 L PAK1 Km app -4.4 Z
MAPK1 (ERK2) Km app 10.1 Z FYN A n/a 3.3 L MAP3K2 (MEKK2) n/a 0.1 L BMPR1A (ALK3) n/a -4.4 L
BRAF 100 9.9 Z CDK1/cyclin A2 n/a 3.3 L CDK8/cyclin C n/a 0.1 L STK4 (MST1) Km app -4.4 Z
IGF1R Km app 9.7 Z KIT V559D T670I n/a 3.1 L MARK2 Km app 0.1 Z PRKCH (PKC eta) Km app -4.6 Z
MAPK14 (p38 alpha) Km app 9.7 Z SPHK2 10 3.1 A ICK n/a 0.0 L SGKL (SGK3) Km app -4.6 Z
LCK Km app 9.6 Z FGFR3 G697C n/a 3.1 L FGFR2 Km app 0.0 Z PI4KB (PI4K beta) Km app -4.7 A
MAPK11 (p38 beta) Km app 9.5 Z RIPK2 n/a 3.1 L AKT2 (PKB beta) Km app 0.0 Z PRKCE (PKC epsilon) Km app -4.9 Z
SRC Km app 9.5 Z PAK6 Km app 3.0 Z EPHB2 Km app -0.1 Z PHKG1 Km app -5.0 Z
CHEK1 (CHK1) Km app 9.3 Z LYN B Km app 3.0 Z TGFBR2 n/a -0.1 L PDGFRA D842V Km app -5.0 Z
CAMK2D (CaMKII delta) Km app 9.3 Z DAPK2 n/a 2.9 L TEK (Tie2) Km app -0.1 Z PRKG2 (PKG2) Km app -5.1 Z
PLK1 Km app 9.2 Z EPHA4 Km app 2.9 Z AURKA (Aurora A) Km app -0.1 Z TYRO3 (RSE) Km app -5.1 Z
RET Y791F Km app 9.2 Z PIK3CG (p110 gamma) Km app 2.9 A KIT D816H n/a -0.2 L TAOK2 (TAO1) Km app -5.1 Z
FLT3 Km app 9.1 Z HIPK1 (Myak) Km app 2.8 Z KIT N822K n/a -0.2 L EPHB4 Km app -5.3 Z
MAPK10 (JNK3) 100 9.0 Z ADRBK2 (GRK3) Km app 2.8 Z PRKACG (PRKAC gamma) n/a -0.2 L AURKC (Aurora C) Km app -5.4 Z
CSNK2A2 (CK2 alpha 2) Km app 8.7 Z STK17B (DRAK2) n/a 2.7 L TEK (TIE2) Y1108F n/a -0.3 L JAK1 Km app -5.7 Z […]

The source of these data is paper PMC6934184, “Selective DNA-PKcs inhibition extends the therapeutic index of localized radiotherapy and chemotherapy” (The Journal of Clinical Investigation, 2019).

T1 sequence (Q5S007 whole entry): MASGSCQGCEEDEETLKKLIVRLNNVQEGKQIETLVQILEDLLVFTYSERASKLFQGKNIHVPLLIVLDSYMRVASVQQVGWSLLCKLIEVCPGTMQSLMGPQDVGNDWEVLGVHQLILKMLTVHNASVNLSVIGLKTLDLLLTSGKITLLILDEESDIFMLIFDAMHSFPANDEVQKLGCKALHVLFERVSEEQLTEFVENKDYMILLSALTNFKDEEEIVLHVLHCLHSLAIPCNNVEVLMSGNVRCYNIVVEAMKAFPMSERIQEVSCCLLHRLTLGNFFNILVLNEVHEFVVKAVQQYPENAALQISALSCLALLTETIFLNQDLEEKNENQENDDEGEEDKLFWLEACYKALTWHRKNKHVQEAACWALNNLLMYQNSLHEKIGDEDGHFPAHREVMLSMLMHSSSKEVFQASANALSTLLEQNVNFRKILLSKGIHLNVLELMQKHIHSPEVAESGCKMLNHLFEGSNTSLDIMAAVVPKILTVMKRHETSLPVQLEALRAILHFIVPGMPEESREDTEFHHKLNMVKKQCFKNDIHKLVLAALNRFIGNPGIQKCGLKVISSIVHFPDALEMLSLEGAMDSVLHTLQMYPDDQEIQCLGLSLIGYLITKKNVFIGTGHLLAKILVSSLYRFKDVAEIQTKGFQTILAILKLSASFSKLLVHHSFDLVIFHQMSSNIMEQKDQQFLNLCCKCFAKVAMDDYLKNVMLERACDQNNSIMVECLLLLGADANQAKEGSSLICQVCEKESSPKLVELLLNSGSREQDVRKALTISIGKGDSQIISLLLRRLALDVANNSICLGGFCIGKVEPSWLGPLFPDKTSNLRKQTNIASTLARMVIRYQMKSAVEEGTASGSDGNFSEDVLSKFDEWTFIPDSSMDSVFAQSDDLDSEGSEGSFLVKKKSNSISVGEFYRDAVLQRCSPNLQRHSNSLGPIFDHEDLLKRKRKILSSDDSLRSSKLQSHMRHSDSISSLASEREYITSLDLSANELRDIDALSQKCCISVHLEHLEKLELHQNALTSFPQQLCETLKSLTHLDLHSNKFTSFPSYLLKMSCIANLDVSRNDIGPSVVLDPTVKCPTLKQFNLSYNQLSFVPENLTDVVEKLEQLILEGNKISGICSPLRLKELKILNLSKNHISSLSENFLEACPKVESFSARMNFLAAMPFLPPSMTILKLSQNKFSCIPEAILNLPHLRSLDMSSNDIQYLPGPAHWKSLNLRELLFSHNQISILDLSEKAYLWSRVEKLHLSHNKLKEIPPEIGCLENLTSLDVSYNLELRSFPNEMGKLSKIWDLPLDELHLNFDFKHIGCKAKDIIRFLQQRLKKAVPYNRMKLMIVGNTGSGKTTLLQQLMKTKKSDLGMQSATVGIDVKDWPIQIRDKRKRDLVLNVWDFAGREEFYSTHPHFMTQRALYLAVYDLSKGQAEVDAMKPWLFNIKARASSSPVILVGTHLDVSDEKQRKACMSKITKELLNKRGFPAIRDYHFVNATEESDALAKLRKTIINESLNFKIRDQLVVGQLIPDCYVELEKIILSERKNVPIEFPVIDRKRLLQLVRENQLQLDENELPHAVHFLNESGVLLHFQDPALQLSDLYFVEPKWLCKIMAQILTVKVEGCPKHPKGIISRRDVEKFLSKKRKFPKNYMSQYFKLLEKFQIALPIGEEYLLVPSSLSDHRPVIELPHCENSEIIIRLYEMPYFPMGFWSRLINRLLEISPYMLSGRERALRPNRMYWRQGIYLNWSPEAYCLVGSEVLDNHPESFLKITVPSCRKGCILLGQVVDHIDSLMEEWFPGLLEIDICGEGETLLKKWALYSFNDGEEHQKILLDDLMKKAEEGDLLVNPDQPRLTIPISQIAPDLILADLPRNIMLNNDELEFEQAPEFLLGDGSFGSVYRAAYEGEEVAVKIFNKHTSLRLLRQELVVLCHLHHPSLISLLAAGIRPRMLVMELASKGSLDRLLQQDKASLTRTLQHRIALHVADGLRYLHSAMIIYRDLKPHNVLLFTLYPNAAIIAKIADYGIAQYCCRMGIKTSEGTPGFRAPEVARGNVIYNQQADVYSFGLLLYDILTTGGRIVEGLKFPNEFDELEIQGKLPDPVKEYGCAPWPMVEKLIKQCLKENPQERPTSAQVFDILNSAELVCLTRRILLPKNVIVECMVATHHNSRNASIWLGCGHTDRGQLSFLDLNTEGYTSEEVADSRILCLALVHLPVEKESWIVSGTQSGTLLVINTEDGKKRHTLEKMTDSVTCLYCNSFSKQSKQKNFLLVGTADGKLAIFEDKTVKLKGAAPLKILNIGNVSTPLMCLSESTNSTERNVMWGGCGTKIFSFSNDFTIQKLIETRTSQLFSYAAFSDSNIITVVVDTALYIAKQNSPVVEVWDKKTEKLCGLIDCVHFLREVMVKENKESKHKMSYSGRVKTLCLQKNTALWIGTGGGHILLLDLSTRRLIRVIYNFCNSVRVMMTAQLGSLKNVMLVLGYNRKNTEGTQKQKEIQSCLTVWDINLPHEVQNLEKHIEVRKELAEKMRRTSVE

By inhibition is commonly meant the drop in the measured response relative to a control, in per cent. A lower inhibition goes with little suppression. For the compound `CN(C(=O)CN1CCOCC1)c1ccc2sc3c(-c4cccc5c(=O)cc(N6CC7CCC(C6)O7)oc45)cccc3c2c1` [NU5455], at 1 µM the inhibition was 1.7%.
